# Laboratory results reported in patent publication US20040138488A1, “Benzene-1 2-diol mannich bases ligands polymers and method of selective metal ions removal” (priority 2001, published 2004).
row,SMILES,melting point
1,"COc1cccc(CN(C)CCN(C)Cc2cccc(OC)c2O)c1O [Example 12, 6,6′-Dimethoxy-2,2′-[ethylenebis(methyliminomethylene)]diphenol]",115 to 116 °C
2,"CCN(CCN(CC)Cc1cccc(OC)c1O)Cc1cccc(OC)c1O [Example 13, 6,6′-Dimethoxy-2,2′-[ethylenebis(ethyliminomethylene)]diphenol]",71 to 72 °C
3,"COc1cccc(CN(C)CCCN(C)Cc2cccc(OC)c2O)c1O [Example 14, 6,6′-Dimethoxy-2,2′-[propane-1,3-diylbis(methyliminomethylene)]diphenol]",78 to 79 °C
4,"COc1cccc(CN2CCN(Cc3cccc(OC)c3O)CC2)c1O [Example 15, 6,6′-Dimethoxy-2,2′-(piperazine-1,4-diylbismethylene)diphenol]",197 to 198 °C
5,"CN(CCCN(C)Cc1cccc(O)c1O)Cc1cccc(O)c1O [Example 19, 3,3′-[Propane-1,3-diylbis(methyliminomethylene)]di(catechol)]",130 °C (dec.)
6,"Oc1cccc(CN2CCN(Cc3cccc(O)c3O)CC2)c1O [Example 20, 3,3′-(Piperazine-1,4-diylbismethylene)di(catechol)]",210 °C (dec.)
